Tested on: TCR identified as responding to the VMNILLQYV peptide (GAD 114-122 TCR)
Test: Response of a cloned GAD 114-122-reactive TCR in the reporter cell line to cognate and unrelated peptides
Assay type: cell-based, human
Settings: cognate peptide versus structurally unrelated peptide, Figure 5D

Row | Sequence | Response of GAD 114-122 TCR in reporter cell line
1 | VMNILLQYV [peptide from the Glutamic Acid Decarboxylase protein] | responding
2 | SLYNPAIVYA [peptide from human chondroitin sulfate N-acetylgalactosaminyltransferase 2] | responded even better

— paper PMC10063231, “Human thymopoiesis produces polyspecific CD8^+ α/β T cells responding to multiple viral antigens” (eLife, 2023)
